Data on eleven molecules can be found in publication PMC12257397, “Scaffold Hopping Strategy toward New 4‑Aminoquinazolines Active Against Extracellular and Intracellular Mycobacterium tuberculosis” (ACS Medicinal Chemistry Letters, 2025).

Data set [1] deals with M. tuberculosis H37Rv-LP. Details: method as in PMID 35262374, PMID 29035551. To be noted: given in Figure 1A; cited from earlier work.
Data set [2] relates to M. tuberculosis H37Rv (Erdman). Also on record: method as in PMID 31511370. To be noted: given in Figure 1A; cited from earlier work.
Data set [3] deals with M. tuberculosis qcrCAB (wt). Also on record: method as in PMID 31511370. To be noted: given in Figure 1A; cited from earlier work.
The subject of data set [4] is M. tuberculosis H37Rv (ATCC 27294). The data set is described as follows: MIC by resazurin reduction microplate assay (REMA). The data set is classed as cell-based. To be noted: Mycobacterium tuberculosis, converted from μg/mL to μM. On the technique in general: The colour change of resazurin is a common sign of viable cells or microbes.
The subject of data set [5] is M. tuberculosis H37Rv-LP (ATCC 25618). The data set is described as follows: microbe, parasite or virus in culture. The data set is classed as cell-based. To be noted: Mycobacterium tuberculosis, 120 h, concentration inhibiting 90% of growth, 5 days, read-out: MIC parental wild-type strain H37Rv-LP.
A short description of data set [6]: in vitro. As to conditions: African green monkey.
Data set [7] is described as follows: in vitro. To be noted: human.
Data set [8] can be described thus: in vitro. As to conditions: African green monkey. The source holds these as a separate data set.
Data set [9] concerns Mycobacterium avium 2285S (smooth). The data set is described as follows: Antimicrobial spectrum MIC, M. avium smooth. It counts as cell-based.
Data set [10] concerns Escherichia coli RFM 795. Description: Antimicrobial spectrum MIC, E. coli. The data set is classed as cell-based. As to conditions: Escherichia coli RFM 795 (lptD mutation).
Data set [11] can be described thus: in vitro. As to conditions: human. This is another data set of the same source.
Data set [12] concerns Mycobacterium smegmatis mc2155. It counts as cell-based.
Data set [13] has as its system Mycobacterium avium 2285R (rough). The data set is described as follows: Antimicrobial spectrum MIC, M. avium rough. The data set is classed as cell-based.
Data set [14] is described as follows: in vitro. As to conditions: human. The source holds these as a separate data set.
The subject of data set [15] is H37Rv-LP (ATCC 25618) inside THP-1 cells. Description: microbe, parasite or virus in culture. It counts as cell-based. As to conditions: Mycobacterium tuberculosis, 72 hours; for IC50: growth of H37Rv-LP inside THP-1 cells inhibited by 50%, read-out: Intracellular IC50; for IC90: growth of H37Rv-LP inside THP-1 cells inhibited by 90%, read-out: Intracellular IC90.
Data set [16] deals with Mycobacterium abscessus 103R. Description: Antimicrobial spectrum MIC, M. abscessus. The data set is classed as cell-based.
In data set [17] the test system is Staphylococcus aureus (ATCC 29213). Description: Antimicrobial spectrum MIC, S. aureus. It counts as cell-based.
Data set [18] is described as follows: Microsomal stability, mouse liver microsomes (MLM). The data set is classed as in vitro ADME. As to conditions: male, BALB/c, pH 7.4; for half-life at 6 μM: mouse liver microsomes, read-out: MLM t1/2. The protocol:
(§1) 1.5. Microsomal stability
(§2) Test compound (6 μM) was incubated at 37 °C with male BALB/c mouse liver microsomes or mixed gender human liver microsomes (Xenotech LLC; 0.5 mg /mL, […] potassium phosphate buﬀer, pH 7.4) and the reaclon started with addilon of excess NADPH (2 mM, pH 7.4). Samples (35 µL) were removed at lme 0, 5, 10, 20, 30, and 60 min and mixed with 35 µL of acetonitrile, methanol, wate r s o l u lon (2:1:1) containing […] internal standard terfenadine and 0.05% v/v acelc acid. The samples were centrifuged at 4000 rpm for 10 min and the supernatant was analyzed using a 1100 HPLC and Single Quad 6120 (Agilent, USA). Compounds were tested in duplic ate, and an exponenlal decay curve ﬁt was used on the ralo of peak area of test compound to internal standard at each lme point to calculate the rate constant (k). The rate of intrinsic clearance (CLint) of each test compound was then calculated using the following equalon: CLint (mL/min/mg) = k x V where V was mL/mg protein. Verapamil (6 μM) was used as a posilve control. Incubalon of each compound with microsomes in the absence of NADPH and analyzed at 0 and 60 min was used as the negalve control.
(§3) The human biological samples were sourced ethically, and their research use was in accord with the terms of the informed consents.
A general note: Liver microsomes are vesicles of endoplasmic reticulum, rich in cytochrome P450 enzymes.

Data set [19] is described as follows: Microsomal stability, human liver microsomes (HLM). The data set is classed as in vitro ADME. As to conditions: both sexes, pH 7.4; for half-life at 6 μM: human liver microsomes, read-out: HLM t1/2. The method, then: as §1, §2, §3
Data set [20] deals with M. tuberculosis H37Rv-LP (ATCC 25618). The data set is described as follows: ATP depletion assay (BacTiter-Glo). It counts as cell-based, Mycobacterium tuberculosis. To be noted: compared to the positive control Q203.

Converted amounts (≈) assume the structure as drawn.

`FC(F)(F)c1ccc(CCNc2cc(-c3ccccn3)nc3ncnn23)cc1` [1 (TAP)]: the “MIC H37Rv-LP” value in data set [1] is 1.4 µM (≈ 0.538 µg/mL).
For `CCc1nc2ccc(C)cc2n1CCCNc1ccccc1` [2 (FABA)], in [1], the “MIC H37Rv-LP” value is 0.056 µM (≈ 0.0164 µg/mL).
Broadly, the IC50 is the concentration needed to halve the response being measured. Regarding `CCc1nc(NCCCc2ccccc2)c2cc(C)sc2n1` [3 (CWHM-1023)], the IC50 in data set [2] was 0.042 µM; in data set [3], 0.025 µM.
As to `Cc1nc(NCCc2ccccc2)c2cc(I)ccc2n1` [9d], the MIC in data set [4] came out at 3.2 µM (≈ 1.25 µg/mL); in data set [5], 0.95 µM (≈ 0.37 µg/mL). Also, the CC50 at 72 h in [6] stood at 11.7 µM; in [7] (CC50 HepG2+Gal), 5.1 µM; in data set [7] (CC50 HepG2+Glu), 10.9 µM; in data set [8], 11.7 µM.
The term IC90 denotes the concentration needed for an effect of 90%. In general, microsomal CLint refers to the capacity of the preparation to metabolise the compound, expressed as a volume cleared per time. As usually defined, the fraction remaining is the share of the starting amount still present when the sample was taken. On to `COc1ccc2nc(C)nc(NCCCc3ccccc3)c2c1` [18b], for which, in [9], the “CIM 2285S” value is above 100 µM. Also, the “CIM RFM 795” value in data set [10] is on record as 54 µM. The CC50 at 72 h in data set [11] was above 20 µM; in data set [14], 17 µM; in [7] (CC50 HepG2+Gal), 11 µM; in data set [7] (CC50 HepG2+Glu), 13.9 µM. The MIC in [4] is 4.1 µM (≈ 1.26 µg/mL); in [5], 1.5 µM (≈ 0.461 µg/mL). For the same molecule, in data set [12], the “CIM mc2155” value is listed as above 32.5 µM. Moreover, the “CIM 2285R” value in [13] was above 100 µM. Besides, the IC50 in data set [15] worked out at 0.84 µM. In addition, the IC90 in data set [15] turned out to be 1.9 µM. Also, in [16], the “CIM 103R” value is reported as above 100 µM. In addition, the “CIM 29213” value in data set [17] is above 100 µM. Further, the microsomal CLint at 6 μM turned out to be 530 µL/min/mg in data set [18] (mouse, microsomes) and 252 µL/min/mg in data set [19] (human, microsomes). This molecule came in with a share remaining at 10 min, 6 μM in [18] (mouse, microsomes) of 7%. In addition, the results for the half-life at 6 μM in data set [18] and in data set [19] were 2.6 min and 5.5 min, respectively. In data set [19] (human, microsomes), this molecule came in with a share remaining at 20 min, 6 μM of 8%.
For `Cc1nc(NCCCc2ccccc2)c2cc(Br)ccc2n1` [18c], the “CIM 2285S” value in [9] is above 100 µM. Moreover, the “CIM RFM 795” value in data set [10] is reported as above 100 µM. For the same molecule, the ATP depletion profile result in [20] was “none of the selected molecules produced a significant ATP depletion profile”. The CC50 at 72 h in data set [11] is 13.8 µM; in data set [14], 13.2 µM; in [7] (CC50 HepG2+Gal), 9.7 µM; in data set [7] (CC50 HepG2+Glu), 19.1 µM. Further, the MIC in data set [4] was 0.45 µM (≈ 0.16 µg/mL); in data set [5], 0.28 µM (≈ 0.0998 µg/mL). Further, in data set [12], the “CIM mc2155” value was above 56.1 µM. In addition, the “CIM 2285R” value in [13] is above 100 µM. Further, the IC50 in data set [15] was determined as 0.16 µM. Further, the IC90 in [15] was found to be 0.45 µM. In addition, in data set [16], the “CIM 103R” value is recorded as above 100 µM. Further, the “CIM 29213” value in data set [17] is on record as above 100 µM. The microsomal CLint at 6 μM in data set [18] (mouse, microsomes) came out at 354 µL/min/mg; in [19] (human, microsomes) it was 184 µL/min/mg. The molecule further showed an amount remaining at 20 min, 6 μM in data set [18] (mouse, microsomes) of 2%. The half-life at 6 μM stood at 3.9 min in data set [18] and 7.5 min in data set [19]. In data set [19] (human, microsomes), the amount remaining at 0.5 h, 6 μM came out at 6%.
As for `Cc1nc(NCCCc2ccccc2)c2cc(I)ccc2n1` [18d], the “CIM 2285S” value in [9] is on record as above 100 µM. Further, the “CIM RFM 795” value in data set [10] is given as above 100 µM. Also, the CC50 at 72 h in data set [11] is above 20 µM; in data set [14] it was 18.3 µM; in [7] (CC50 HepG2+Gal), 13 µM; in data set [7] (CC50 HepG2+Glu), 20.3 µM. Also, the MIC came out at 1.6 µM (≈ 0.645 µg/mL) in data set [4] and 0.58 µM (≈ 0.234 µg/mL) in [5]. In addition, the “CIM mc2155” value in data set [12] is listed as above 12.4 µM. Moreover, the “CIM 2285R” value in [13] is reported as above 100 µM. Further, the IC50 in data set [15] worked out at 0.47 µM. The IC90 in data set [15] amounted to 1.2 µM. The “CIM 103R” value in [16] is above 100 µM. Besides, the “CIM 29213” value in [17] is given as above 100 µM. For the same molecule, the intrinsic clearance (microsomal CLint) at 6 μM in data set [18] (mouse, microsomes) was 202 µL/min/mg; in data set [19] (human, microsomes), 243 µL/min/mg. In data set [18] (mouse, microsomes), this molecule had a fraction remaining at 5 min, 6 μM of 63%. The results for the half-life at 6 μM in data set [18] and in data set [19] were 6.9 min and 5.7 min, respectively. In data set [19] (human, microsomes), this molecule registered a fraction remaining at 20 min, 6 μM of 9%.
Consider `CO[C@H]1/C=C/O[C@@]2(C)Oc3c(C)c(O)c4c(O)c(c(/C=N/N5CCN(C)CC5)c(O)c4c3C2=O)NC(=O)/C(C)=C\C=C\[C@H](C)[C@H](O)[C@@H](C)[C@@H](O)[C@@H](C)[C@H](OC(C)=O)[C@@H]1C` [20 (RIF), rifampicin, reference compound], for which the “CIM mc2155” value in [12] is reported as 48.6 µM. Besides, in [5], the MIC is 0.03 µM (≈ 0.0247 µg/mL).
On to `CC[C@H]1OC(=O)[C@H](C)[C@@H](O[C@H]2C[C@@](C)(OC)[C@@H](O)[C@H](C)O2)[C@H](C)[C@@H](O[C@@H]2O[C@H](C)C[C@H](N(C)C)[C@H]2O)[C@](C)(OC)C[C@@H](C)C(=O)[C@H](C)[C@@H](O)[C@]1(C)O` [25 (CLA), Clarithromycin, reference compound], for which, in [9], the “CIM 2285S” value came out at 0.4 µM. Moreover, the “CIM 2285R” value in [13] was 1.4 µM. Moreover, the “CIM 103R” value in data set [16] is recorded as 0.5 µM.
On to `CN[C@H](CC(C)C)C(=O)N[C@H]1C(=O)N[C@@H](CC(N)=O)C(=O)N[C@H]2C(=O)N[C@H]3C(=O)N[C@H](C(=O)N[C@H](C(=O)O)c4cc(O)cc(O)c4-c4cc3ccc4O)[C@H](O)c3ccc(c(Cl)c3)Oc3cc2cc(c3O[C@@H]2O[C@H](CO)[C@@H](O)[C@H](O)[C@H]2O[C@H]2C[C@](C)(N)[C@H](O)[C@H](C)O2)Oc2ccc(cc2Cl)[C@H]1O` [26 (VAN), Vancomycin, reference compound], for which the “CIM 29213” value in data set [17] came to 2.9 µM.
Regarding `CC1(C)S[C@@H]2[C@H](NC(=O)[C@H](N)c3ccccc3)C(=O)N2[C@H]1C(=O)O` [27 (AMP), Ampicillin, reference compound], the “CIM RFM 795” value in data set [10] was 12.0 µM.
